From PubChem BioAssay (NCI)
Several values for one entry are separate records, joined by “and”; a condition that tells them apart may be missing. Equal values may be shown once.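 Exposure lasted 48 hours, with cells grown in 96-well plates and compounds tested at five concentrations. GI50: concentration for 50% inhibition of growth. TGI is the concentration that stops growth completely.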

How the values were obtained:
Assay in all cases: NCI-60 cell line screen, 48 h
[1] = system: A549 NSCLC
[2] = system: ACHN renal
[3] = system: HCT-116 colon
[4] = system: HCT-15 colon
[5] = system: IGROV1 ovarian
[6] = system: MDA-MB-231 breast
[7] = system: NCI-H23 lung
[8] = system: NCI-H460 lung
[9] = system: OVCAR-5 ovarian
[10] = system: UO-31 renal

| SMILES | GI50 [1] | TGI [1] | GI50 [2] | TGI [2] [µM] | GI50 [3] | TGI [3] [µM] | GI50 [4] | TGI [4] [µM] | GI50 [5] | TGI [5] | GI50 [6] | TGI [6] | GI50 [7] | TGI [7] [µM] | GI50 [8] | TGI [8] [µM] | GI50 [9] | TGI [9] [µM] | GI50 [10] | TGI [10] |
| --- | --- | --- | --- | --- | --- | --- | --- | --- | --- | --- | --- | --- | --- | --- | --- | --- | --- | --- | --- | --- |
| Fc1ccc(-c2c(-c3ccncc3)[nH]c3nccnc23)cc1 | 7.35 µM | > 25 µM | 3.05 µM | > 25 | 6.39 µM | > 22.1 | 8.28 µM | > 25 | 16.2 µM | > 25 µM | > 14.4 µM | > 25 µM | > 17.4 µM | > 25 | 7.11 µM | > 21.3 | 11.2 µM | > 25 | 3.43 µM | > 25 µM |
| CS(=O)(=O)N1CCc2c(-c3cnc(N)nc3)nc(N3CCOCC3)nc21 | 0.644 µM and 0.413 µM | > 10 µM and 5.45 µM | 0.735 µM and 0.677 µM | > 100 | 0.571 µM and 0.553 µM | > 100 | 0.397 µM and 0.419 µM | > 100 | 0.0868 µM and 0.0664 µM | 0.443 µM and 0.485 µM | 1.29 µM and 1.26 µM | > 10 µM and 23.4 µM | 1.94 µM and 1.37 µM | > 100 | 0.333 µM and 0.286 µM | > 100 | 0.685 µM and 0.461 µM | > 62.6 | 0.18 µM and 0.136 µM | 3.14 µM and 3.03 µM |
| Nc1ccc(C(=O)Nc2ccccc2N)cc1 | – | > 100 µM | – | > 100 | – | > 90.7 | – | > 100 | – | > 100 µM | – | > 100 µM | – | > 100 | – | > 100 | – | > 82.7 | – | > 100 µM |
| COc1ccc(-c2nc3sccn3c2-c2ccnc(NCCCNS(=O)(=O)c3ccc(F)cc3)n2)cc1 | 2.94 µM | > 100 µM | 1.99 µM | 7.73 | 3.19 µM | 24.4 | 2.4 µM | 10.6 | 3.27 µM | > 100 µM | 4.18 µM | > 100 µM | 2.11 µM | 5.5 | 2.78 µM | 37.6 | 4.59 µM | > 100 | 1.85 µM | 5.17 µM |
| COc1cc(-c2nn(-c3cccc(NC(=O)CCN4CCN(C)CC4)c3)cc2-c2ccncc2)ccc1Cl | 1.4 µM | 4.9 µM | 1.61 µM | 10.7 | 0.904 µM | 4.17 | 1.08 µM | 4.11 | 2.37 µM | 15.6 µM | 1.69 µM | 3.66 µM | 2.38 µM | 10.4 | 0.532 µM | 2.28 | 2.06 µM | 5.82 | 1.38 µM | 3.91 µM |
| CC(C)[C@H](C(=O)O[C@@H]1/C=C/C(=O)O[C@@H](C)CCC/C=C/[C@@H]2C[C@H](O)C[C@H]21)N(C)C | 14.6 µM | > 94.4 µM | 35.2 µM | > 100 | 14.5 µM | 37.2 | 14.1 µM | 34.5 | 22.8 µM | > 71.3 µM | 12.8 µM | 51.9 µM | 16.8 µM | > 83.6 | 27.7 µM | 82.5 | 20.4 µM | > 89.5 | 15 µM | > 83.7 µM |
| Cc1cc(C#Cc2ccccc2)ccc1-n1c(/C=C/c2cc(O)ccc2O)nc2ccccc2c1=O | 1.28 µM | 2.68 µM | 1.44 µM | 2.75 | 1.46 µM | 2.77 | 1.03 µM | 2.21 | 2.45 µM | 8 µM | 1.56 µM | 3.16 µM | 1.48 µM | 3.12 | 1.57 µM | 2.91 | 1.39 µM | 2.7 | 1.16 µM | 3.1 µM |
| COc1cccc(/C=C\c2ccnc3ccccc23)c1 | – | > 10 µM | – | > 10 | – | > 10 | – | > 10 | – | > 10 µM | – | > 10 µM | – | > 10 | – | > 10 | – | > 10 | – | > 10 µM |
| N[C@@H](CSSC[C@H](N)C(=O)N1CCn2cc(-c3ccccc3)nc2[C@@H]1CC1CCCCC1)C(=O)N1CCn2cc(-c3ccccc3)nc2[C@@H]1CC1CCCCC1 | 1.37 µM | 3.05 µM | 1.77 µM | 3.81 | 1.14 µM | 2.51 | 1.82 µM | 3.71 | 2.41 µM | 5.96 µM | 1.74 µM | 3.68 µM | 1.41 µM | 3.14 | 1.92 µM | 6.4 | 2.23 µM | 6.39 | 1.69 µM | 3.61 µM |
| O=C1/C(=C/c2ccccc2[N+](=O)[O-])COc2ccc(O)c(O)c21 | 2.61 µM | 12.4 µM | 0.278 µM | 0.863 | 0.297 µM | 1.1 | 0.286 µM | 1.15 | 0.73 µM | 2.55 µM | 0.799 µM | 2.68 µM | 1.54 µM | 5.22 | 1.38 µM | 4.94 | 1.69 µM | 3.66 | 0.295 µM | 2.03 µM |
| Cn1cc(C2=C(c3c(S(C)=O)n(C)c4ccccc34)C(=O)NC2=O)c2ccccc21 (stereo not given) | 9.24 µM | > 25 µM | 8.83 µM | > 25 | 8.57 µM | > 25 | 7.38 µM | > 25 | 10.8 µM | > 25 µM | 12.9 µM | > 25 µM | 9.79 µM | > 25 | 5.83 µM | > 25 | > 25 µM | > 25 | 3.89 µM | > 25 µM |
